Here are results for 26 molecules from ChEMBL document CHEMBL1201862, “PubChem BioAssay data set” (2004).

The nature of experiment [1]: P. falciparum Dd2 growth inhibitors, dose response, SYBR Green, cherry-picked samples (AID 1159567). Type of experiment: functional, cell-based.
Experiment [2] concerns the target T1, Rac GTPase-activating protein 1 (Homo sapiens, UniProt Q9H0H5).
T1 sequence (Q9H0H5 whole entry): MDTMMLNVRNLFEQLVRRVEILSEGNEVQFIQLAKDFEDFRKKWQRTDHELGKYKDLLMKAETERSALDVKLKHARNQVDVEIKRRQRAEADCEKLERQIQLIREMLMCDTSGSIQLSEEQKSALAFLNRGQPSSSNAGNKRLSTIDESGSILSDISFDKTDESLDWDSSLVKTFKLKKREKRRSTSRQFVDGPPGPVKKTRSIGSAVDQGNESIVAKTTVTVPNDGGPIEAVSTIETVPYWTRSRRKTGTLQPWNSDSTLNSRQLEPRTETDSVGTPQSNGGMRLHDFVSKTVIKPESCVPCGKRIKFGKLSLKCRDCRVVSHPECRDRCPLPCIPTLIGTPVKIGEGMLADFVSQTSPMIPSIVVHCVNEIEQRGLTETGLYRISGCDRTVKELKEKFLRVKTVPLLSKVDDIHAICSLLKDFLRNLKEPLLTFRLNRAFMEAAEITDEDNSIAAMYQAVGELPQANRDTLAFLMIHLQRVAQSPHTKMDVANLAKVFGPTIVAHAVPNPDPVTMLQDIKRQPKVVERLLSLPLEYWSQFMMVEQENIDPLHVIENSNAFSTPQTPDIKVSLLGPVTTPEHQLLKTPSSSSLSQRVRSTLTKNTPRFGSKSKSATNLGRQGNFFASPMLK
Briefly: MgcRacGAP GTPase-activating activity inhibitors, confirmation, biochemical, ADP Hunter fluorescence, primary and confirmatory (AID 624330). The experiment is classed as functional.

Experiment [3] in a line: HEp-2 cell cytotoxicity, dose response, cytotoxicity control for RSV inhibitor project, HTS (AID 2410). The experiment is classed as functional. The settings on record: human respiratory syncytial virus.
For the next experiment, the target named is T2, Streptokinase A (Streptococcus pyogenes serotype M1, UniProt P10520).
T2 sequence (P10520 whole entry): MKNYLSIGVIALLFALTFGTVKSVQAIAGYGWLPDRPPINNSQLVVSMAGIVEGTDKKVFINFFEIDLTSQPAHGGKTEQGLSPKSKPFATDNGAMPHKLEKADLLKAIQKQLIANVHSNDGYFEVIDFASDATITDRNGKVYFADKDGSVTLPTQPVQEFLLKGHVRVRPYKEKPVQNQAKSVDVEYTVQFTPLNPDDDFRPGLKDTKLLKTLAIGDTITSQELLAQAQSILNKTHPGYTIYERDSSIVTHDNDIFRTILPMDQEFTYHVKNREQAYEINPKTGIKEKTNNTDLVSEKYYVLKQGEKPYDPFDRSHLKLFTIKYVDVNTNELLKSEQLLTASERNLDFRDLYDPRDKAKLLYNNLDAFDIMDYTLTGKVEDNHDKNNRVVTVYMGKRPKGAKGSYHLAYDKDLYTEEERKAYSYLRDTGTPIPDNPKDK
The experiment can be described thus: S. pyogenes streptokinase expression inhibitors, potency, dose response, plasminogen activation absorbance, OD405 (AID 1914).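 Note: secreted streptokinase activity via plasminogen activation per viability signal from cell pellet.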 Type of experiment: functional, Streptococcus pyogenes M1 GAS.

The subject of experiment [4] is Streptococcus sp. 'group A'. The experiment can be described thus: growth inhibition of control SK(-) GAS strain, dose response, counter-screen for streptokinase expression inhibitor project, luminescence, kanamycin, BacTiterGlo, confirmation (AID 1900). Type of experiment: functional, organism-based.
The subject of a further experiment is Streptococcus. The experiment can be described thus: Group A Streptococcus viability loss, dose response, counter-screen for streptokinase expression inhibitor project, luminescence, BacTiterGlo (AID 1915).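 Note: potency for reduction of bacterial viability or growth.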 Type of experiment: functional, organism-based.
A short description of experiment [5]: Luminescence Cell-Based Dose Retest to Confirm Inhibitors of Cancer Stem Cells. [Related pubchem assays (depositor defined):AID2717, AID2721]. The experiment is classed as functional. The note with it: Homo sapiens.
The nature of experiment [6]: cytotoxicity toward NIH3T3 fibroblasts, dose response, counter-screen, cell-based, ATP luminescence, mouse fibroblasts (AID 2010).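 Note: cells exposed to compound for about 90 hours before reading.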 Type of experiment: functional.
Experiment [7] can be described thus: inhibitors of intracellular T. cruzi replication, confirmation, NIH3T3 host cells, beta-gal luminescence (AID 2044).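 Note: intracellular parasites grown in NIH/3T3 mouse fibroblasts as host cells; luminescent beta-galactosidase reporter signal from transgenic T. cruzi replicating inside host cells; inhibitors lower the luminescence signal.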 Type of experiment: functional, cell-based.

The source made the active and inactive calls.

As for `COc1cccc(CN2[C@@H](CO)[C@H](c3ccccc3)C23CN(C(=O)C2CCCC2)C3)c1`, the AC50 in experiment [1] was 5.77 µM (active).
For `CCOc1cc(CNc2ccc3c(c2)OCCO3)cc(Br)c1OCC(N)=O`, in [2], the IC50 was 99.3 µM (active).
Turning to `Cc1ccc(-n2nc3c(=O)n(CCCC(=O)NCCc4ccccc4C)nc(C)c3c2C)cc1`, the CC50 in [3] is > 50 µM (active).
In the case of `CN(C)CCCn1c(SCc2ccc(Cl)cc2)nnc1-c1ccncc1`, the concentration for half-maximal inhibition (IC50) in experiment [2] is 121 µM (active).
For `OC[C@H]1[C@@H](c2ccc(-c3cccnc3)cc2)[C@H]2CN(CC3CC3)CCCCN21`, the AC50 in [1] was 6.52 µM (active).
With `O=C1N=C(Nc2ccc(Cl)cc2)SC1Cc1cccc(Cl)c1Cl` (stereo not given), the EC50 is 131 µM (active) on Streptokinase A, 3.91 µM (active) in experiment [4] and > 150 µM (not active) with Streptococcus. Further, the AC50 in [5] was 13.2 µM (active).
With `O=C(Cn1cc(C(F)(F)F)ccc1=O)N/N=C/c1ccc(O)cc1`, the IC50 in [2] was 95.1 µM (active).
As to `CCOC(=O)N1CCC(/N=c2\c(O)c(O)\c2=N/c2cccc(CC)c2)CC1`, the CC50 in experiment [3] is 39.3 µM (active).
As for `CCC(=O)N1CC2(C1)CN(Cc1cccc(Cl)c1)[C@H](CO)c1c2c2ccc(OC)cc2n1C`, in experiment [1], the AC50 is 10.5 µM (active).
On to `Cc1ccccc1C(=O)Nc1ccc(N2CCCC2)cc1`, for which the IC50 in experiment [2] is 79.7 µM (active).
Take `CO[C@H]1CN(C)C(=O)c2ccc(NC(=O)c3cccc(Oc4ccccc4)c3)cc2OC[C@@H](C)NC[C@H]1C`: the half-maximal activity concentration (AC50) in [1] is 7.72 µM (active).
Consider `Cc1ccc(OCC(=O)N2CCN(CC3CC4C=CC3C4)CC2)cc1` (stereo not given), for which the IC50 in experiment [2] is 293 µM (active).
`CC(C)NC(=O)N1CCCCN2[C@H](CO)[C@@H](c3ccc(C#C[C@H](C)O)cc3)[C@@H]2C1`: in [1], the AC50 is 19.5 µM (active).
Regarding `O=C(Nc1ccccn1)c1ccc2ccccc2c1O`, the concentration for half-maximal inhibition (IC50) in experiment [2] was 73 µM (active).
`CCCC(O)(c1ccc(Br)cc1)C(CN1CCOCC1)c1ccc(Cl)cc1` (stereo not given): the EC50 on Streptokinase A was 12.1 µM (active); in experiment [4], 7.94 µM (active); with Streptococcus it was 72.1 µM (active).
For the molecule `CCC(=O)N1CCC2(CC1)CN(Cc1ccc(Cl)cc1)[C@H](CO)c1[nH]c3cc(OC)ccc3c12`, in experiment [1], the concentration at half-maximal activity (AC50) was 3.07 µM (active).
As to `O=C(c1ccc(N2CCN(C3CC(=O)N(Cc4cccs4)C3=O)CC2)cc1)c1cccnc1` (stereo not given), in [3], the CC50 was 24.4 µM (active).
Take `CCOC(=O)c1c(C)[nH]c(C(=O)CN2CCN(CC)CC2)c1C`: the half-maximal inhibitory concentration (IC50) in experiment [2] is 60.6 µM (active).
Regarding `CCC(C)N1C(=O)/C(=C/NNc2ccccc2)C(=O)NC1=S` (stereo not given), the EC50 (at Streptokinase A; in experiment [4]; with Streptococcus) was > 150 µM (not active) each time. The AC50 in [5] was 2.24 µM (active).
Regarding `CNC[C@H]1Oc2ncc(-c3ccc(OC)cc3)cc2C(=O)N([C@H](C)CO)C[C@H]1C`, the half-maximal activity concentration (AC50) in experiment [1] was 7.75 µM (active).
Take `COc1ccc2c3c([nH]c2c1)[C@@H](CO)N(Cc1ccccc1Cl)CC31CCN(C(=O)C2CC2)CC1`: in experiment [1], the half-maximal activity concentration (AC50) was 5.82 µM (active).
Take `Cc1cccc(C)c1NC(=S)N/N=C/c1ccc(OCCC(C)C)cc1`: the EC50 in experiment [6] was > 60 µM (inconclusive); on Streptokinase A, 16.9 µM (active); in experiment [7] it was 2.02 µM (active); in experiment [4], 8.34 µM (active); in the experiment with Streptococcus, 21.9 µM (active).
Take `CN(C)c1ccc(C=Cc2cnccn2)cc1`: the half-maximal inhibitory concentration (IC50) in experiment [2] was 38.6 µM (active).
For the molecule `CC(C)n1nc(C(=O)Nc2nnc(SCc3c(Cl)cccc3Cl)s2)c2ccccc2c1=O`, the values for the EC50 (on Streptokinase A; in [4]; in the experiment on Streptococcus) were > 150 µM (not active), 2.09 µM (active) and 116 µM (active), respectively.
For `COc1cccc(CN2[C@@H](CO)[C@H](c3ccccc3)C23CN(C(=O)C2CCOCC2)C3)c1`, the half-maximal activity concentration (AC50) in [1] is 7.03 µM (active).
On to `COc1cc(/C=C/C(C)=NNc2ccccc2)ccc1O`, for which, in [2], the IC50 is 51.9 µM (active).
